This is an account of results in the supplement of paper PMC11208160.

The series is described as follows: recombinant barcode read abundance after kanamycin selection (control-corrected) (log10(CPM+1)); higher = more efficient recombination; sequences stand for … in AGTGCAGAGAAAATCGGCCAGTTTTCTCTGCCTGCAGTCCGCATGCCGT…AGATTTATGCAGCGGACTGCCTTTCTCCCAAAGTGATAAACCGGACAGTATCATGGACCGGTTTTCCCGGTAATCCGTATTTGCAAGGTTGGTTTCACT; site = the 11-nt target. A digest of the protocol:
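Each value is log10(CPM+1). It describes recombination efficiency, taken as averaged, control-corrected counts per million of barcodes at recombinant junctions. The pooled E. coli library paired targets with IS621 bridge RNA target-binding loops, was co-electroporated with a donor plasmid, and was plated twice on chloramphenicol/ampicillin LB agar (control) and twice on chloramphenicol/ampicillin/kanamycin containing 0.1 mM IPTG.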
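Note: IS621 recombinase and bridge RNA in Escherichia coli cells.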

Consider “AGCACGACTTGGGTTCTAACCTGTTGCTG (site AGCAGGACTCG)”, for which the “recombinant barcode read abundance (log10)” value is 0.157. In the case of “AGCAGAGCTTGGGTTCTAACCTGTTGCTG (site AGCAGAGCTCA)” it was 1.39; in that of “AGCAGAGCTTGGGTTCTAACCTGTTGCTG (site AGCAGAGCTCC)”, 1.94.

For “AGCAGAGCTTGGGTTCTAACCTGTTGCTG (site AGCAGAGCTCG)”, the “recombinant barcode read abundance (log10)” value is 0.133. “AGCAGAGCTTGGGTTCTAACCTGTTGCTG (site AGCAGAGCTCT)”: the “recombinant barcode read abundance (log10)” value is 0.93. The value for “AGCATCACTTGGGTTCTAACCTGTTGCCT (site AACATCACTCG)” was 0.135. In the case of “AGCATCACTTGGGTTCTAACCTGTTGCCT (site AGCATCACTAG)” it was 0.499. As for “AGCATTGCTTGGGTTCTAACCTGTTGCCT (site AGCATTGCTAG)”, the “recombinant barcode read abundance (log10)” value was 0.235. In the case of “AGCATTGCTTGGGTTCTAACCTGTTGCCT (site AGCCTTGCTAG)” it was 0.629; in that of “AGCATTGCTTGGGTTCTAACCTGTTGCCT (site AGCGTTGCTAG)”, 0.724. The value for “AGCATTGCTTGGGTTCTAACCTGTTGCCT (site AGCTTTGCTAG)” was 0.0996; that for “AGCCACCCTTGGGTTCTAACCTGTTGCCT (site AGCCACACTAG)” was 0.201; that for “AGCCACCCTTGGGTTCTAACCTGTTGCCT (site AGCCACCCTAG)” was 0.425.

In the case of “AGCCACCCTTGGGTTCTAACCTGTTGCCT (site AGCCACGCTAG)”, the “recombinant barcode read abundance (log10)” value is 0.265. The value for “AGCCACCCTTGGGTTCTAACCTGTTGCCT (site AGCCACTCTAG)” was 0.522.

In the case of “AGCCGCCCTTGGGTTCTAACCTGTTGCAT (site AGCCGCCCTAT)”, the “recombinant barcode read abundance (log10)” value worked out at 0.172. The value for “AGCCGCCCTTGGGTTCTAACCTGTTGCAT (site CGCCGCCCTAG)” was 0.119. As to “AGCCGTACTTGGGTTCTAACCTGTTGCCT (site AGACGTACTAG)”, the “recombinant barcode read abundance (log10)” value came to 0.129. The value for “AGCCGTACTTGGGTTCTAACCTGTTGCCT (site AGCCGTACTAG)” was 0.341; that for “AGCCGTACTTGGGTTCTAACCTGTTGCCT (site AGGCGTACTAG)” was 0.318.

“AGCCGTACTTGGGTTCTAACCTGTTGCCT (site AGTCGTACTAG)”: the “recombinant barcode read abundance (log10)” value came out at 0.0183. The value for “AGCCTGCCTTGGGTTCTAACCTGTTGCCT (site AGCCTGACTAG)” was 0.0617.

For the sequence “AGCCTGCCTTGGGTTCTAACCTGTTGCCT (site AGCCTGCCTAG)”, the “recombinant barcode read abundance (log10)” value is 0.389. The value for “AGCCTGCCTTGGGTTCTAACCTGTTGCCT (site AGCCTGGCTAG)” was 0.549; that for “AGCCTGCCTTGGGTTCTAACCTGTTGCCT (site AGCCTGTCTAG)” was 0.0826.

Consider “AGCCTGTCTTGGGTTCTAACCTGTTGCCT (site AGCCTGACTAG)”, for which the “recombinant barcode read abundance (log10)” value was determined as 0.444. In the case of “AGCCTGTCTTGGGTTCTAACCTGTTGCCT (site AGCCTGCCTAG)” it was 0. Consider “AGCCTGTCTTGGGTTCTAACCTGTTGCCT (site AGCCTGGCTAG)”, for which the “recombinant barcode read abundance (log10)” value amounted to 0.143.

Turning to “AGCCTGTCTTGGGTTCTAACCTGTTGCCT (site AGCCTGTCTAG)”, the “recombinant barcode read abundance (log10)” value amounted to 1.36. On to “AGCGAATCTTGGGTTCTAACCTGTTGCCG (site AGCGAATCTCG)”, for which the “recombinant barcode read abundance (log10)” value was determined as 0.217. In the case of “AGCGAATCTTGGGTTCTAACCTGTTGCCG (site GAGCGTCCTTA)” it was 0.232; in that of “AGCGCGACTTGGGTTCTAACCTGTTGCCT (site AGCGCGACTAG)”, 0.381; in that of “AGCGCGACTTGGGTTCTAACCTGTTGCCT (site AGGACGACTAG)”, 0.338. The value for “AGCGCTCCTTGGGTTCTAACCTGTTGCGT (site AGCCCTCCTAT)” was 0.532. In the case of “AGCGCTCCTTGGGTTCTAACCTGTTGCGT (site AGCGCTCCTAC)” it was 0.646; in that of “AGCGGGCCTTGGGTTCTAACCTGTTGCCT (site AGCGGACCTAG)”, 0.382; in that of “AGCGGGCCTTGGGTTCTAACCTGTTGCCT (site AGCGGCCCTAG)”, 1.08.

On to “AGCGGGCCTTGGGTTCTAACCTGTTGCCT (site AGCGGGCCTAG)”, for which the “recombinant barcode read abundance (log10)” value amounted to 0.313. The value for “AGCGGGCCTTGGGTTCTAACCTGTTGCCT (site AGCGGTCCTAG)” was 0.072.

As for “AGCTAAACTTGGGTTCTAACCTGTTGCCT (site AGCTAAACTAG)”, the “recombinant barcode read abundance (log10)” value was 0.256. The value for “AGCTAAACTTGGGTTCTAACCTGTTGCCT (site AGCTTATCTAG)” was 0.141; that for “AGCTACTCTTGGGTTCTAACCTGTTGCTT (site AGCTACTCTAA)” was 0.694; that for “AGCTACTCTTGGGTTCTAACCTGTTGCTT (site AGTTAATCTAA)” was 0.144.

As to “AGCTCATCTTGGGTTCTAACCTGTTGCCT (site AGCTCACCTAG)”, the “recombinant barcode read abundance (log10)” value turned out to be 0.0516. “AGCTCATCTTGGGTTCTAACCTGTTGCCT (site AGCTCATCTAG)”: the “recombinant barcode read abundance (log10)” value came to 0.0912. In the case of “AGCTTAGCTTGGGTTCTAACCTGTTGCCG (site AGCTTAGCTAG)” it was 0.14. “AGCTTAGCTTGGGTTCTAACCTGTTGCCG (site AGCTTAGCTCG)”: the “recombinant barcode read abundance (log10)” value stood at 0.19. For the sequence “AGCTTAGCTTGGGTTCTAACCTGTTGCCG (site AGCTTAGCTGG)”, the “recombinant barcode read abundance (log10)” value is 0.0372. For the sequence “AGCTTAGCTTGGGTTCTAACCTGTTGCCG (site AGCTTAGCTTG)”, the “recombinant barcode read abundance (log10)” value came to 0.188.

In the case of “AGGAATTCTTGGGTTCTAACCTGTTGCCT (site AGAAATTCTAG)”, the “recombinant barcode read abundance (log10)” value worked out at 0.443. The value for “AGGAATTCTTGGGTTCTAACCTGTTGCCT (site AGCAATTCTAG)” was 0.356. In the case of “AGGAATTCTTGGGTTCTAACCTGTTGCCT (site AGGAATTCTAG)” it was 1.59; in that of “AGGAATTCTTGGGTTCTAACCTGTTGCCT (site AGTAATTCTAG)”, 0.

Turning to “AGGACTTCTTGGGTTCTAACCTGTTGCCT (site AGGACTTCTAG)”, the “recombinant barcode read abundance (log10)” value is 0.618. In the case of “AGGACTTCTTGGGTTCTAACCTGTTGCCT (site AGGATTACTAG)” it was 0.704; in that of “AGGAGCCCTTGGGTTCTAACCTGTTGCTG (site AGGAGCCCTAA)”, 0.0752.

Regarding “AGGAGCCCTTGGGTTCTAACCTGTTGCTG (site AGGAGCCCTCA)”, the “recombinant barcode read abundance (log10)” value was determined as 1.75.

As for “AGGAGCCCTTGGGTTCTAACCTGTTGCTG (site AGGAGCCCTGA)”, the “recombinant barcode read abundance (log10)” value was 0.0914. In the case of “AGGAGCCCTTGGGTTCTAACCTGTTGCTG (site AGGAGCCCTTA)” it was 0.194. With “AGGAGCTCTTGGGTTCTAACCTGTTGCTA (site AGGAACTCTAA)”, the “recombinant barcode read abundance (log10)” value was determined as 0.131. In the case of “AGGAGCTCTTGGGTTCTAACCTGTTGCTA (site AGGAGCTCTTA)” it was 1.27; in that of “AGGATAACTTGGGTTCTAACCTGTTGCCT (site AGGATAACTAG)”, 0.655. The value for “AGGATAACTTGGGTTCTAACCTGTTGCCT (site AGGATACCTAG)” was 0; that for “AGGATACCTTGGGTTCTAACCTGTTGCCT (site AGGATAACTAG)” was 0.219. The value for “AGGATACCTTGGGTTCTAACCTGTTGCCT (site AGGATACCTAG)” was 1.56; that for “AGGATATCTTGGGTTCTAACCTGTTGCCT (site AAGATATCTAG)” was 0.114. Consider “AGGATATCTTGGGTTCTAACCTGTTGCCT (site ACGATATCTAG)”, for which the “recombinant barcode read abundance (log10)” value amounted to 0.14. In the case of “AGGATATCTTGGGTTCTAACCTGTTGCCT (site AGGATATCTAG)” it was 0.559; in that of “AGGATATCTTGGGTTCTAACCTGTTGCCT (site ATGATATCTAG)”, 0.261. The value for “AGGATCCCTTGGGTTCTAACCTGTTGCAT (site AGGATCCCTAT)” was 1.99; that for “AGGATCCCTTGGGTTCTAACCTGTTGCAT (site AGGATCCCTCT)” was 1.07; that for “AGGATTACTTGGGTTCTAACCTGTTGCCT (site AGGACTTCTAG)” was 0.161. The value for “AGGATTACTTGGGTTCTAACCTGTTGCCT (site AGGATTACTAG)” was 0.641; that for “AGGCACTCTTGGGTTCTAACCTGTTGCTG (site AGGCACTCTCA)” was 2.35; that for “AGGCACTCTTGGGTTCTAACCTGTTGCTG (site TGGCACTCTAA)” was 0.0921.

Regarding “AGGCATCCTTGGGTTCTAACCTGTTGCCT (site AAGCATCCTAG)”, the “recombinant barcode read abundance (log10)” value came to 0.32.

With “AGGCATCCTTGGGTTCTAACCTGTTGCCT (site ACGCATCCTAG)”, the “recombinant barcode read abundance (log10)” value came to 0.202.
